The assay concerns SK-MEL-28 tumor cells. Description: Melanoma CDX model, SK-MEL-28 tumor growth. It is filed as in vivo, BALB/c nude mice. Conditions: 60 mg/kg subcutaneously twice a day for 5 days, then once a day for 9 days; not statistically significant. How it is done: For this model, BALB/c nude mice were inoculated subcutaneously (sc) with SK-MEL-28 tumor cells (5×10^6 in 0.1 mL PBS and Matigel, 1:1). […] Throughout the treatment period, tumor sizes were recorded. […] Vehicle control consisted of 5% DMSO and 95% of a 20% 2-hydroxypropyl-beta-cyclodextrin solution. Eight female mice were included in each group. t-test was done using GraphPad Software.

`C#CCOc1cccc(Nc2ncnc3ccc(NC(=O)CCl)cc23)c1` [Compound 1]: the “Tumor size compared to control” value is given as “reduce tumor size compared to control starting at day 8”.

Source of the values: patent US12392778B2, “Method for proteome-wide discovery of covalent ligands and compositions thereof” (BridGene Biosciences, Inc., priority 2019, dated 2025).
